Data: patent publication EP0845217A1, “Inhibiting undesirable taste in oral compositions” (priority 1996, dated 1998)

Tested on: human taste response to bitter-tasting compounds
Experiment: Human taste test: detection threshold of bitter-tasting compounds with and without VMP
Type: in vivo
Conditions: 0.3% VMP
Description: In the first taste test, the detection threshold for a bitter-tasting compound is determined by having subjects taste a series of solutions containing increasing concentrations of the bitter-tasting compound. None of the subjects are able to taste the bitterness in the first solution containing the lowest concentration of the bitter-tasting molecule. The subjects are instructed to indicate the first, or lowest concentration of solution that is sensed as bitter. This concentration is the detection threshold for that particular compound and subject. […] The detection threshold for the bitter-tasting compound plus inhibitor is likewise determined. All of these aqueous solutions contain 5% sucrose. […] The dilution series are in ^1/2 log increments (i.e., 1 uM, 3.2 uM, 10 uM, 32 uM). The pair of dilution series with and without inhibitor is tasted within a 2 hour time period. Subjects are blinded as to the identity of the bitter compound and whether inhibitor is present or not. The two dilution series are presented in random order. […]

For vanillylmonophosphate [VMP], the “# VMP did not change threshold” value (CPC, n 2) was 1, the “# VMP increased threshold” value (CPC, n 2) was 0 and the “% Subjects that VMP increased threshold” value (CPC, n 2) was 0.00%. The “# VMP did not change threshold” value (acetaminophen, n 5) was 3, the “# VMP increased threshold” value (acetaminophen, n 5) was 2 and the “% Subjects that VMP increased threshold” value (acetaminophen, n 5) was 40.00%. For the same substance, the “# VMP did not change threshold” value (caffeine, n 4) was 3, the “# VMP increased threshold” value (caffeine, n 4) was 0 and the “% Subjects that VMP increased threshold” value (caffeine, n 4) was 0.00%. For the same substance, the “# VMP did not change threshold” value (chlorpheniramine maleate, n 5) was 0, the “# VMP increased threshold” value (chlorpheniramine maleate, n 5) was 4 and the “% Subjects that VMP increased threshold” value (chlorpheniramine maleate, n 5) was 80.00%. The “# VMP did not change threshold” value (cimetidine, n 2) was 1, the “# VMP increased threshold” value (cimetidine, n 2) was 1 and the “% Subjects that VMP increased threshold” value (cimetidine, n 2) was 50.00%. The “# VMP did not change threshold” value (denatonium benzoate, n 4) was 2, the “# VMP increased threshold” value (denatonium benzoate, n 4) was 2 and the “% Subjects that VMP increased threshold” value (denatonium benzoate, n 4) was 50.00%. For the same substance, the “# VMP did not change threshold” value (dextromethorphan, n 5) was 4, the “# VMP increased threshold” value (dextromethorphan, n 5) was 1 and the “% Subjects that VMP increased threshold” value (dextromethorphan, n 5) was 20.00%. The “# VMP did not change threshold” value (domiphen bromide, n 4) was 3, the “# VMP increased threshold” value (domiphen bromide, n 4) was 1 and the “% Subjects that VMP increased threshold” value (domiphen bromide, n 4) was 25.00%. The “# VMP did not change threshold” value (doxylamine succinate, n 3) was 1, the “# VMP increased threshold” value (doxylamine succinate, n 3) was 2 and the “% Subjects that VMP increased threshold” value (doxylamine succinate, n 3) was 66.67%. The “# VMP did not change threshold” value (famotidine, n 3) was 3, the “# VMP increased threshold” value (famotidine, n 3) was 0 and the “% Subjects that VMP increased threshold” value (famotidine, n 3) was 0.00%. For the same substance, the “# VMP did not change threshold” value (guaifenesin, n 8) was 2, the “# VMP increased threshold” value (guaifenesin, n 8) was 2 and the “% Subjects that VMP increased threshold” value (guaifenesin, n 8) was 25.00%. For the same substance, the “# VMP did not change threshold” value (phenylpropanolamine, n 7) was 2, the “# VMP increased threshold” value (phenylpropanolamine, n 7) was 4 and the “% Subjects that VMP increased threshold” value (phenylpropanolamine, n 7) was 57.14%. The “# VMP did not change threshold” value (pseudoephedrine, n 5) was 2, the “# VMP increased threshold” value (pseudoephedrine, n 5) was 2 and the “% Subjects that VMP increased threshold” value (pseudoephedrine, n 5) was 40.00%. The “# VMP did not change threshold” value (ranitidine, n 3) was 1, the “# VMP increased threshold” value (ranitidine, n 3) was 1 and the “% Subjects that VMP increased threshold” value (ranitidine, n 3) was 33.33%. The “# VMP did not change threshold” value (sucrose octaacetate, n 7) was 4, the “# VMP increased threshold” value (sucrose octaacetate, n 7) was 1 and the “% Subjects that VMP increased threshold” value (sucrose octaacetate, n 7) was 14.29%.
